From patent US20120095055A1, “HEXAHYDROCYCLOPENTYL[f]INDAZOLE 5-HYDROXYMETHYL ETHANOLS AND DERIVATIVES THEREOF AS SELECTIVE GLUCOCORTICOID RECEPTOR MODULATORS” (Merck Sharp & Dohme, Corp., priority 2009, published 2012)

Molecular target: T1, human GR (Homo sapiens, UniProt P04150)
T1 construct: naturally expresses the human GR; endogenous in cells
T1 sequence (P04150 1-777): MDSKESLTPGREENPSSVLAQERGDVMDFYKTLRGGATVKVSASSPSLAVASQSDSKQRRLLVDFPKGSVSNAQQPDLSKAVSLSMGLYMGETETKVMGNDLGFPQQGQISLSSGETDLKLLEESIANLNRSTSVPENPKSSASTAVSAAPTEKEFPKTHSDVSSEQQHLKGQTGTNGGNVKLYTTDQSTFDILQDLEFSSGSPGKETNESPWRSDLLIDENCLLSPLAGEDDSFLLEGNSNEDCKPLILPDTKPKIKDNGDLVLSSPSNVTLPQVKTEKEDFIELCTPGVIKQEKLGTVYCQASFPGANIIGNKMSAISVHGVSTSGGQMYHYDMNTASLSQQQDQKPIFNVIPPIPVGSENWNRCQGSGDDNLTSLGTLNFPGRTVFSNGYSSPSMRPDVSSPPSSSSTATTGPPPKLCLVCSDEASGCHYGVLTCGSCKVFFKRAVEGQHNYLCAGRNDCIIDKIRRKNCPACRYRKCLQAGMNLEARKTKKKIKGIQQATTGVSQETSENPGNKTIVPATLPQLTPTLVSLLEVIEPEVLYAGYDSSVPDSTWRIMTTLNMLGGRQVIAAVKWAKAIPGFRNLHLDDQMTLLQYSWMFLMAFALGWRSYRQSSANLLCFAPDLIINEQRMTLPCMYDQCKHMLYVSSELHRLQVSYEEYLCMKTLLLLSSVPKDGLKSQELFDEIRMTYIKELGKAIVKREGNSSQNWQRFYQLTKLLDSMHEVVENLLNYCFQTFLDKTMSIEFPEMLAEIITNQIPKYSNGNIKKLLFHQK
Test: Transrepression Assay (GITAR), TNFα-β-lactamase reporter in U937 cells
Format: cell-based
Conditions: for Transrepression U937 Cells GITAR Emax (%): activity repressed by 100 nM dexamethasone set as 100%; for EC50: inflection point (IP), TNFα promoter β-lactamase reporter, PMA/LPS; for Emax: U-937, activity repressed by 100 nM dexamethasone set as 100%
Source text: This assay assesses the ability of test compounds to control transcription from the TNFα-β-lactamase reporter gene in U937 cells, a human myelomonocytic leukemia cell line that naturally expresses the human GR. The assay measures compound dependent-repression of the TNFa promoter linked to a reporter gene.
The human U937 cells that had been stablely transfected with the TNF-α promoter driving β-lactamase are used for this assay. U937 cells contain an endogenous glucocorticoid receptor (GR). Cells are maintained in RPMI 1640 Growth medium (Gibco Cat#11875-093) containing 25 mM HEPES, 10% FBS, 2 mM L-Glutamine, 1 mM Sodium pyruvate, 25 μg/ml Gentamicin (Gibco Cat#15710-064), 1:1000 2-Mercaptoethanol (Gibco Cat#21985-023) and 0.8 mg/ml G418 (Gibco Cat#10131-027). The density of the cells in the flask needs to be about 1×106-3×10^6/ml at the time of harvest. Usually, the cells are split to 1.2˜1.4×10^5/ml (1:10) 3 days prior to the assay. 50,000 cells/well are plated in 96 well black-walled plates the day of assay. Test compounds are added 10 μL/well, and cells are incubated at 37° C. for 30˜45 min. For assaying compounds, first dilute 1:10 in DMSO to make 1 mM, then further dilute 1:100 in medium to make 10× stock prior to adding to the cells. Add 50 ng/ml PMA (Sigma, cat# P8139) 10 μL/well to a final concentration 5 ng/ml, and 1 μg/ml LPS (Sigma, cat# L4130) 10 μL/well to a final concentration 100 ng/ml. Incubate cells at 37° C. overnight for ˜18 hr. PMA is stored frozen as 100 μg/ml stock in DMSO. Dilute 1:10 in DMSO for a working stock of 10 μg/ml and store at −20 C. For assaying, dilute the 10 μg/ml working stock 1:200 in medium to make a 10× solution (50 ng/ml). Store frozen LPS at 1 mg/ml in PBS, dilute 1:1000 in medium to make 10× (1 μg/ml) for the assay. Add 6× loading buffer (CCF2-AM) 20 μL/well, and incubate at room temperature for 70˜90 min. […] The activity repressed by 100 nM dexamethasone alone is set as 100% activity.

Row | Transrepression U937 Cells GITAR Emax (%) | EC50 [nM] | Emax [%] | SMILES
1 | 91.7 | 24 |  | C[C@]12Cc3cnn(-c4ccc(F)cc4)c3C=C1CC[C@@]2(CO)CC(O)c1ccccn1 (single isomer, unassigned) [Example 1b]
2 | 99.6 | 6 |  | C[C@]12Cc3cnn(-c4ccc(F)cc4)c3C=C1CC[C@@]2(CO)CC(O)c1ccccc1Cl (single isomer, unassigned) [Example 3b]
3 |  | 3.9 | 91 | C[C@]12Cc3cnn(-c4ccc(F)cc4)c3C=C1CC[C@@]2(CO)CC(O)c1ccccc1 (single isomer, unassigned) [Example 13a]
4 |  | 5.6 | 93 | C[C@]12Cc3cnn(-c4ccc(F)cc4)c3C=C1CC[C@@]2(CO)CC(O)c1ccccn1 (single isomer, unassigned) [Example 1a]
5 |  | 21.4 | 89.9 | C[C@]12Cc3cnn(-c4ccc(F)cc4)c3C=C1CC[C@@]2(CO)CC(O)c1cccc(Cl)c1 (stereo partly drawn) [Example 8, 1-(3-chlorophenyl)-2-[(4αS,5R)-1-(4-fluorophenyl)-5-(hydroxymethyl)-4α-methyl-1,4,4α,5,6,7-hexahydrocyclopenta[f]indazol-5-yl]ethanol]
6 | 80.6 | 98.5 |  | C[C@]12Cc3cnn(-c4ccc(F)cc4)c3C=C1CC[C@@]2(CO)CC(O)c1cccnc1 (single isomer, unassigned) [Example 15b]
7 |  | 56.3 | 87.7 | C[C@]12Cc3cnn(-c4ccc(F)cc4)c3C=C1CC[C@@]2(CO)CC(O)c1cccnc1 (single isomer, unassigned) [Example 15a]
8 |  | 87.6 | 95.3 | C[C@]12Cc3cnn(-c4ccc(F)cc4)c3C=C1CC[C@@]2(CO)CC(O)c1cccc(C(F)(F)F)c1 (single isomer, unassigned) [Example 7a]
9 |  | 86.1 | 84.7 | Cc1cccc(C(O)C[C@]2(CO)CCC3=Cc4c(cnn4-c4ccc(F)cc4)C[C@@]32C)c1 (single isomer, unassigned) [Example 5a]

Second part, the molecule before the results:

Row | SMILES | Transrepression U937 Cells GITAR Emax (%) | EC50 [nM] | Emax [%]
10 | C[C@]12Cc3cnn(-c4ccc(F)cc4)c3C=C1CC[C@@]2(CO)CC(O)C(F)(F)F (single isomer, unassigned) [Example 28b] | 80.2 | 90.9 | 
11 | C[C@]12Cc3cnn(-c4ccccc4)c3C=C1CC[C@@]2(CO)CC(O)c1cccnc1 (single isomer, unassigned) [Example 29b] | 60.9 | 103 | 
12 | C[C@]12Cc3cnn(-c4ccccc4)c3C=C1CC[C@@]2(CO)CC(O)c1ccccn1 (single isomer, unassigned) [Example 23b] | 83.7 | 49.6 | 
13 | CC(C)C(O)C[C@]1(CO)CCC2=Cc3c(cnn3-c3ccc(F)cc3)C[C@@]21C (single isomer, unassigned) [Example 14b] | 82.3 | 249 | 
14 | C[C@]12Cc3cnn(-c4ccc(F)cc4)c3C=C1CC[C@@]2(CO)CC1OC(=O)c2ccccc21 (stereo partly drawn) [Example 11, 3-{[(4αS,5R)-1-(4-fluorophenyl)-5-(hydroxymethyl)-4α-methyl-1,4,4α,5,6,7,7a,8-octahydrocyclopenta[f]indazol-5-yl]methyl}-2-benzofuran-1(3H)-one] |  | 241 | 84.6
15 | C[C@]12Cc3cnn(-c4ccccc4)c3C=C1CC[C@@]2(CO)CC(O)c1ccccn1 (single isomer, unassigned) [Example 23a] |  | 22.8 | 82.6
16 | COc1ccc(C(O)C[C@]2(CO)CCC3=Cc4c(cnn4-c4ccc(F)cc4)C[C@@]32C)nc1 (single isomer, unassigned) [Example 24a] |  | 447 | 63
17 | COc1ccc(C(O)C[C@]2(CO)CCC3=Cc4c(cnn4-c4ccc(F)cc4)C[C@@]32C)nc1 (single isomer, unassigned) [Example 24b] | 57.9 | 376 | 
18 | C[C@]12Cc3cnn(-c4ccc(F)cc4)c3C=C1CC[C@@]2(CO)CC(O)c1ccc(F)cn1 (single isomer, unassigned) [Example 22b] | 90.6 | 14.1 | 
19 | COc1cccnc1C(O)C[C@]1(CO)CCC2=Cc3c(cnn3-c3ccc(F)cc3)C[C@@]21C (single isomer, unassigned) [Example 21b] | 91.3 | 18.7 | 
20 | C[C@]12Cc3cnn(-c4ccccc4)c3C=C1CC[C@@]2(CO)CC(O)c1cccnc1 (single isomer, unassigned) [Example 29a] |  | 176 | 66.6
21 | C[C@]12Cc3cnn(-c4ccc(F)cc4)c3C=C1CC[C@@]2(CO)CC(O)C1CCCCC1 (single isomer, unassigned) [Example 18a, 1-cyclohexyl-2-[(4αS)-1-(4-fluorophenyl)-5-(hydroxymethyl)-4α-methyl-1,4,4α,5,6,7-hexahydrocyclopenta[f]indazol-5-yl]ethanol] |  | 7.9 | 93.1
22 | COc1cccnc1C(O)C[C@]1(CO)CCC2=Cc3c(cnn3-c3cccc(F)c3)C[C@@]21C (single isomer, unassigned) [Example 26a] | 82.1 | 80.8 | 
23 | C[C@]12Cc3cnn(-c4cccc(F)c4)c3C=C1CC[C@@]2(CO)CC(O)c1ccccn1 (single isomer, unassigned) [Example 19b] | 86.7 | 73.8 | 
